# Assay results as given in US11634701B2, “Metabolic pathways with increased carbon yield” (TOTAL RAFFINAGE CHIMIE, priority 2018, dated 2023).
# Where two headings read alike, the source gives them in different places.
# How the values were obtained:
# [1] = system: C. acetobutylicum Tal (transaldolase); conditions: measured experimentally or estimated from literature, cited from earlier work
# [2] = system: C. acetobutylicum Tkt′ (transketolase, second reaction); conditions: measured experimentally or estimated from literature, cited from earlier work
# [3] = target: T1, C. acetobutylicum Xpk (xylulose-5-phosphate phosphoketolase) (Clostridium acetobutylicum, UniProt Q97JE3); assay: Kinetic parameters of C. acetobutylicum NOG enzymes (Xpk); assay type: biochemical; conditions: measured experimentally or estimated from literature
# T1 sequence (Q97JE3 1-796): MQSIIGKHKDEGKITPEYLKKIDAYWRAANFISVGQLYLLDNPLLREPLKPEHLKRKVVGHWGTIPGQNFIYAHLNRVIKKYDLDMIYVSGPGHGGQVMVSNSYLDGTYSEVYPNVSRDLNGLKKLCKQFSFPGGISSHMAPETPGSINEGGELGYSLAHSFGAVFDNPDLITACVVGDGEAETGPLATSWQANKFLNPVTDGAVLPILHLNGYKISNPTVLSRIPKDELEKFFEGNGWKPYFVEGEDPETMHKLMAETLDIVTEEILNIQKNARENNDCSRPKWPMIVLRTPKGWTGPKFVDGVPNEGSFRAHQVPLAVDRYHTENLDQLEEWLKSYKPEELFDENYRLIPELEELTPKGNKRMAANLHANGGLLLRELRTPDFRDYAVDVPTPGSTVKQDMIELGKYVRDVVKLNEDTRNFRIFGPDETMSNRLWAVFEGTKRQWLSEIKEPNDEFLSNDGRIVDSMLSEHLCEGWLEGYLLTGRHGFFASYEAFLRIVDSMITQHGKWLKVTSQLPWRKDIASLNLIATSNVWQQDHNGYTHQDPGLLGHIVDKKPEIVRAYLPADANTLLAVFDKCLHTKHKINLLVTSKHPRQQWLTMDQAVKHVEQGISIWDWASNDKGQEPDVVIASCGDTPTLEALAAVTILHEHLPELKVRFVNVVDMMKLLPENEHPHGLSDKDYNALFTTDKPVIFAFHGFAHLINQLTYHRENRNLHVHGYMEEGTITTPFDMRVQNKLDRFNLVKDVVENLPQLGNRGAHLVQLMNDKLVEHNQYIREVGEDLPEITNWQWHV
# Procedure: (§1) The kinetic parameters of C. acetobutylicum enzymes involved in the NOG pathway were measured experimentally or estimated from literature (Table 1) and compiled in a COPASI toolbox for kinetic simulations.
# [4] = system: C. acetobutylicum Rpe (ribulose-3-phosphate epimerase); conditions: measured experimentally or estimated from literature, cited from earlier work
# [5] = system: C. acetobutylicum Fba (fructose-1,6-bisphosphate aldolase); assay: Kinetic parameters of C. acetobutylicum NOG enzymes (Fba); assay type: biochemical; conditions: measured experimentally or estimated from literature; read-out: Kms
# Procedure: as §1
# [6] = system: C. acetobutylicum Fbp (fructose-1,6-biphosphatase); assay: Kinetic parameters of C. acetobutylicum NOG enzymes (Fbp); assay type: biochemical; conditions: measured experimentally or estimated from literature
# Procedure: as §1
# [7] = system: C. acetobutylicum Rpi (ribose-5-phosphate isomerase); conditions: measured experimentally or estimated from literature, cited from earlier work
# [8] = system: C. acetobutylicum Fba (fructose-1,6-bisphosphate aldolase); conditions: measured experimentally or estimated from literature, cited from earlier work
# [9] = system: C. acetobutylicum Tpi (triose phosphate isomerase); conditions: measured experimentally or estimated from literature, cited from earlier work
# [10] = system: C. acetobutylicum Tkt (transketolase); conditions: measured experimentally or estimated from literature, cited from earlier work
compound,measurement,setting,value
O=P(O)(O)OC[C@H]1OC(O)(CO)[C@@H](O)[C@@H]1O (stereo partly shown) [fructose-6-phosphate],Km,[1]; read-out: Kmp,1440 µM
same,Km,[2]; read-out: Kmp,1100 µM
O=C(CO)[C@@H](O)[C@H](O)COP(=O)(O)O [xylulose-5-phosphate],Km,[3],6400 µM
same,Km,[4]; read-out: Kmp,7700 µM
same,Km,[2]; read-out: Kmb,670 µM
"O=P(O)(O)OC[C@H]1OC(O)(COP(=O)(O)O)[C@@H](O)[C@@H]1O (stereo partly shown) [fructose-1,6-bisphosphate]",Km,[5],1140 µM
same,Km,[6],63 µM
O=C[C@H](O)[C@H](O)COP(=O)(O)O [erythrose-4-phosphate],Km,[1]; read-out: Kmq,362 µM
same,Km,[2]; read-out: Kma,946 µM
O=C(CO)[C@H](O)[C@H](O)COP(=O)(O)O [ribulose-5-phosphate],Km,[7]; read-out: Kms,2470 µM
same,Km,[4]; read-out: Kms,5970 µM
O=C(CO)COP(=O)(O)O [dihydroxyacetone phosphate],Km,[8]; read-out: Kmp,2000 µM
same,Km,[9]; read-out: Kms,6450 µM
O=P(O)(O)OC[C@H]1OC(O)[C@H](O)[C@@H]1O (stereo partly shown) [ribose-5-phosphate],Km,[7]; read-out: Kmp,5700 µM
same,Km,[10]; read-out: Kmb,235 µM
O=C(CO)[C@@H](O)[C@H](O)[C@H](O)[C@H](O)COP(=O)(O)O [sedoheptulose-7-phosphate],Km,[1]; read-out: Kmb,786 µM
same,Km,[10]; read-out: Kmq,150 µM
O=C[C@H](O)COP(=O)(O)O [glyceraldehyde-3-phosphate],Km,[1]; read-out: Kma,272 µM
same,Ki,[8]; read-out: Kip,10 mM
same,Km,[8]; read-out: Kmq,2400 µM
same,Km,[9]; read-out: Kmp,5250 µM
same,Km,[2]; read-out: Kmq,100 µM
